Test results reported in patent US20260034123A1 (Cedilla Therapeutics, Inc., priority 2022, published 2026).
pIC50: −log10 of the molar value.

Key:
Kuramochi cells RB-KO = experiment: IncuCyte Kuramochi cell proliferation assay, RB-KO; format: cell-based; conditions: 72 hours, cell count, batch mean
Summary of the method: (§1)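 mApple-H2B-labelled Kuramochi cells were treated with a 10-point, half-log series (top 20 µM) and imaged at 0 and 72 h. Fluorescent nuclei were counted, and the 0–72 h fold change was normalized to DMSO wells. GI50 came from dose-response fits.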

Kuramochi cells RB-WT = experiment: IncuCyte Kuramochi cell proliferation assay, RB-WT; format: cell-based; conditions: 72 hours, cell count
Summary of the method: as §1

CDK2/Cyclin E1 = CDK2/Cyclin E1 (Homo sapiens, UniProt P24941); experiment: ADP-Glo Luminescent Kinase Assay (CDK2/E1-37C); format: biochemical; conditions: 0.18 nM CDK2/Cyclin E1, 100 μM ATP, Histone H1, 37° C.; read-out: ADPGLO (CDK2/E1-37C): IC50
Summary of the method: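 Activated CDK2/Cyclin E1 (0.18 nM final) preincubated with compound 60 min at 37 °C, then reacted with 100 μM ATP and Histone H1 ([…]) for 90 min at 37 °C in HEPES pH 7.5 buffer. ADP-Glo luminescence normalized to % activity; IC50 from four-parameter fit.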

Structure (SMILES)	pIC50 (CDK2/Cyclin E1)	pIC50 (Kuramochi cells RB-KO)	pIC50 (Kuramochi cells RB-WT)
O=C(O)c1c(COC[C@@H]2CN(c3cc(F)c(F)c4ncsc34)CC23CN(C(=O)C2(C(F)(F)F)CC2)C3)cccc1C1CCC(C(F)(F)F)CC1 (stereo partly drawn) [I′-34, (S)-2-(((6-(4,5-difluorobenzo[d]thiazol-7-yl)-2-(1-(trifluoromethyl)cyclopropane-1-carbonyl)-2,6-diazaspiro[3.4]octan-8-yl)methoxy)methyl)-6-(4-(trifluoromethyl)cyclohexyl)benzoicacid]	≥ 6.30	< 5.00	≥ 6.30
CC1(C)C[C@@H]1C(=O)N1CC2(CN(C(=O)c3cnn(Cc4ccc(F)cc4)c3)CC2COCc2cccc(C3CCC(C(F)(F)F)CC3)c2C(=O)NS(C)(=O)=O)C1 (stereo partly drawn) [Compound I-86, 2-(((2-((S)-2,2-dimethylcyclopropane-1-carbonyl)-6-(1-(4-fluorobenzyl)-1H-pyrazole-4-carbonyl)-2,6-diazaspiro[3.4]octan-8-yl)methoxy)methyl)-N-(methylsulfonyl)-6-(4-(trifluoromethyl)cyclohexyl)benzamide]	≥ 6.30	5.30 to 6.30	5.30 to 6.30
CC1(C)C[C@@H]1C(=O)N1CC2(CN(C(=O)c3cnn(Cc4ccc(F)cc4)c3)CC2COc2cccc(OC3CCC(F)(F)CC3)c2C(=O)O)C1 (stereo partly drawn) [Compound I-130, 2-((4,4-difluorocyclohexyl)oxy)-6-((2-((S)-2,2-dimethylcyclopropane-1-carbonyl)-6-(1-(4-fluorobenzyl)-1H-pyrazole-4-carbonyl)-2,6-diazaspiro[3.4]octan-8-yl)methoxy)benzoic acid]	≥ 6.30	< 5.00	< 5.00
O=C(O)c1ccccc1Cn1cc(C(=O)N2CC(COCc3cccc(C4CCC(C(F)(F)F)CC4)c3C(F)(F)F)C3(C2)CN(C(=O)C2(C(F)(F)F)CC2)C3)cn1 (stereo not drawn) [Compound I-114]	≥ 6.30	< 5.00	< 5.00
CC1(C)C[C@@H]1C(=O)N1CC2(C1)CN(c1cc(F)c(F)c3ncsc13)C[C@H]2COCc1cccc(C2CCC(F)(F)CC2)c1C(=O)O [I′-72, 2-((((S)-6-(4,5-difluorobenzo[d]thiazol-7-yl)-2-((S)-2,2-dimethylcyclopropane-1-carbonyl)-2,6-diazaspiro[3.4]octan-8-yl)methoxy)methyl)-6-(4,4-difluorocyclohexyl)benzoic acid]	≥ 6.30	< 5.00	≥ 6.30
CC(C)(C(=O)N1CC2(CN(C(=O)c3cnn(Cc4ccc(F)cc4C(F)(F)F)c3)C[C@H]2COCc2cccc(C3CCC(F)(F)CC3)c2C(=O)O)C1)C(F)(F)F [Compound I-127, (S)-2-(4,4-difluorocyclohexyl)-6-(((6-(1-(4-fluoro-2-(trifluoromethyl)benzyl)-1H-pyrazole-4-carbonyl)-2-(3,3,3-trifluoro-2,2-dimethylpropanoyl)-2,6-diazaspiro[3.4]octan-8-yl)methoxy)methyl)benzoic acid]	≥ 6.30	< 5.00	5.30 to 6.30
O=C(O)c1c(CCC2CN(C(=O)c3cnn(Cc4ccc(F)cc4)c3)CC23CN(C(=O)C2(C(F)(F)F)CC2)C3)cccc1C1CCC(F)(F)CC1 (stereo not drawn) [I′-29]	≥ 6.30	< 5.00	< 5.00
CC1(C)C[C@@H]1C(=O)N1CC2(CN(C(=O)c3cnn(Cc4ccc(F)cc4)c3)CC2C#CCc2cccc(C3CCC(F)(F)CC3)c2C(=O)O)C1 (stereo partly drawn) [I′-78]	< 5.00	< 5.00	< 5.00
Cc1cc(N2C[C@@H](COCc3cccc(C4CCC(F)(F)CC4)c3C(=O)O)C3(CN(C(=O)C4(C(F)(F)F)CC4)C3)C2)c2scnc2c1C [I′-41]	< 5.00	< 5.00	5.00 to 5.30
O=C(O)c1c(OCCC2CN(C(=O)c3cnn(Cc4ccc(F)cc4)c3)CC23CN(C(=O)C2(C(F)(F)F)CC2)C3)cccc1C1CCC(F)(F)CC1 (stereo not drawn) [I′-32, 2-(4,4-difluorocyclohexyl)-6-(2-(6-(1-(4-fluorobenzyl)-1H-pyrazole-4-carbonyl)-2-(1-(trifluoromethyl)cyclopropane-1-carbonyl)-2,6-diazaspiro[3.4]octan-8-yl)ethoxy)benzoic acid]	≥ 6.30	5.00 to 5.30	≥ 6.30
CC(C)(C(=O)N1CC2(CN(C(=O)c3cnn(Cc4ccc(F)cc4)c3)CC2COCc2cccc(C3CCC(F)(F)CC3)c2C(=O)O)C1)C(F)(F)F (stereo not drawn) [I′-76]	≥ 6.30	5.00 to 5.30	5.30 to 6.30
O=C(O)c1c(COC[C@@H]2CN(C(=O)c3cnn(Cc4ccc(F)cc4)c3)CC23CN(C(=O)C2(C(F)(F)F)CCC2)C3)cccc1C1CCC(C(F)(F)F)CC1 (stereo partly drawn) [Compound I-95, (S)-2-(((6-(1-(4-fluorobenzyl)-1H-pyrazole-4-carbonyl)-2-(1-(trifluoromethyl)cyclobutanecarbonyl)-2,6-diazaspiro[3.4]octan-8-yl)methoxy)methyl)-6-(4-(trifluoromethyl)cyclohexyl)benzoic acid]	≥ 6.30	< 5.00	5.30 to 6.30
O=C(O)c1ccccc1Cn1cc(C(=O)N2C[C@@H](COCc3cccc(C4CCC(C(F)(F)F)CC4)c3F)C3(C2)CN(C(=O)C2(C(F)(F)F)CC2)C3)cn1 (stereo in doubt) [Compound I-115, 2-((4-(8-(((2-fluoro-3-(4-(trifluoromethyl)cyclohexyl)benzyl)oxy)methyl)-2-(1-(trifluoromethyl)cyclopropane-1-carbonyl)-2,6-diazaspiro[3.4]octane-6-carbonyl)-1H-pyrazol-1-yl)methyl)benzoic acid]	≥ 6.30	< 5.00	< 5.00
CC(C(=O)N1CC2(CN(C(=O)c3cnn(Cc4ccc(F)cc4)c3)C[C@H]2COCc2cccc(C3CCC(C(F)(F)F)CC3)c2C(=O)O)C1)C(F)(F)F (stereo partly drawn) [Compound I-97, 2-((((8S)-6-(1-(4-fluorobenzyl)-1H-pyrazole-4-carbonyl)-2-(3,3,3-trifluoro-2-methylpropanoyl)-2,6-diazaspiro[3.4]octan-8-yl)methoxy)methyl)-6-(4-(trifluoromethyl)cyclohexyl)benzoic acid]	≥ 6.30	< 5.00	5.00 to 5.30

Further lines, with some results ahead:

pIC50 (CDK2/Cyclin E1)	Structure (SMILES)	pIC50 (Kuramochi cells RB-KO)	pIC50 (Kuramochi cells RB-WT)
≥ 6.30	CC(C)(C)OC(=O)c1c(COCC2CN(C(=O)c3cnn(Cc4ccc(F)cc4)c3)CC23CN(C(=O)[C@H]2CC2(C)C)C3)cccc1C1CCC(F)(F)CC1 (stereo partly drawn) [I′-79, tert-butyl 2-(4,4-difluorocyclohexyl)-6-(((2-((S)-2,2-dimethylcyclopropane-1-carbonyl)-6-(1-(4-fluorobenzyl)-1H-pyrazole-4-carbonyl)-2,6-diazaspiro[3.4]octan-8-yl)methoxy)methyl)benzoate]	< 5.00	< 5.00
5.30 to 6.30	O=C(O)c1c(COC[C@@H]2CN(C(=O)c3cnn(Cc4ccc(F)cc4)c3)CC23CN(C(=O)CC2(C(F)(F)F)CC2)C3)cccc1C1CCC(C(F)(F)F)CC1 (stereo partly drawn) [Compound I-98]	< 5.00	< 5.00
≥ 6.30	CC(C)(C(=O)N1CC2(CN(C(=O)c3cnn(Cc4ccc(F)cc4)c3)C[C@H]2COCc2cccc(C3CCC(C(F)(F)F)CC3)c2CC(=O)O)C1)C(F)(F)F (stereo partly drawn) [I′-23, (S)-2-(2-(((6-(1-(4-fluorobenzyl)-1H-pyrazole-4-carbonyl)-2-(3,3,3-trifluoro-2,2-dimethylpropanoyl)-2,6-diazaspiro[3.4]octan-8-yl)methoxy)methyl)-6-(4-(trifluoromethyl)cyclohexyl)phenyl)acetic acid]	< 5.00	≥ 6.30
≥ 6.30	O=C(O)c1c(COCC2CN(C(=O)c3cnn(Cc4ccc(F)cc4)c3)CC23CN(C(=O)C2(C(F)(F)F)CC2)C3)cccc1-c1ccc(Cl)cc1F (stereo not drawn) [I′-73]	< 5.00	≥ 6.30
5.30 to 6.30	O=C(O)c1c(COC[C@@H]2CN(c3cc(Cl)c(Cl)c4ncsc34)CC23CN(C(=O)C2(C(F)(F)F)CC2)C3)cccc1C1CCC(F)(F)CC1 [I′-49]	< 5.00	< 5.00
≥ 6.30	CC(C)(C(=O)N1CC2(CN(C(=O)c3cnn(Cc4ccc(F)c(F)c4)c3)C[C@H]2COCc2cccc(C3CCC(F)(F)CC3)c2C(=O)O)C1)C(F)(F)F [I′-58, (S)-2-(((6-(1-(3,4-difluorobenzyl)-1H-pyrazole-4-carbonyl)-2-(3,3,3-trifluoro-2,2-dimethylpropanoyl)-2,6-diazaspiro[3.4]octan-8-yl)methoxy)methyl)-6-(4,4-difluorocyclohexyl)benzoic acid]	< 5.00	< 5.00
≥ 6.30	CC(C)(C(=O)N1CC2(CN(C(=O)c3cnn(Cc4ccc(F)cc4)c3)C[C@H]2COCc2cccc(C3CCC(C(F)(F)F)CC3)c2C(=O)O)C1)C(F)(F)F (stereo partly drawn) [Compound I-94, (S)-2-(((6-(1-(4-fluorobenzyl)-1H-pyrazole-4-carbonyl)-2-(3,3,3-trifluoro-2,2-dimethylpropanoyl)-2,6-diazaspiro[3.4]octan-8-yl)methoxy)methyl)-6-(4-(trifluoromethyl)cyclohexyl)benzoic acid]	< 5.00	5.30 to 6.30
≥ 6.30	CC(C)(C(=O)N1CC2(CN(C(=O)c3cnn(Cc4ccc(F)cc4)c3)C[C@H]2COCc2cccc(C3CCC(F)(F)CC3)c2C(=O)O)C1)C(F)(F)F [Compound I-101, (S)-2-(4,4-difluorocyclohexyl)-6-(((6-(1-(4-fluorobenzyl)-1H-pyrazole-4-carbonyl)-2-(3,3,3-trifluoro-2,2-dimethylpropanoyl)-2,6-diazaspiro[3.4]octan-8-yl)methoxy)methyl)benzoic acid]	< 5.00	5.30 to 6.30
